Reference: patent US4868158A, “Method for the production of a macromolecular carrier loaded with a biologically active substance” (Oncholab AB, priority 1985, dated 1989)

Test system: WEHI-3B cells, a murine monomyelocytic cell line
Conditions: 1.0 million WEHI-3B cells i.p.; 1.9 mg AD-32/kg/day i.p. for five days
Protocol: Balb/C mice were injected intraperitonally (i.p.) with 1.0 million WEHI-3B cells, a murine monomyelocytic cell line. […] The AD-32 was administered i.p. dissolved in a mixture of ethanol and castor oil.

CCCCC(=O)OCC(=O)C1(O)Cc2c(O)c3c(c(O)c2C(OC2CC(NC(=O)C(F)(F)F)C(O)C(C)O2)C1)C(=O)c1c(OC)cccc1C3=O (stereo not shown) [AD-32, N-trifluoroacetyladriamycin-14-valerate]
ILS, Increased Life Span: 2%
